Test results: the Kinase Knowledgebase extract (Sharma et al. 2016)

Target: MAPK14 (UniProt Q16539)
Experiment: Inhibition of MAPK14 Kinase Activity

Chain of MAPK14 (Q16539 whole entry, looked up): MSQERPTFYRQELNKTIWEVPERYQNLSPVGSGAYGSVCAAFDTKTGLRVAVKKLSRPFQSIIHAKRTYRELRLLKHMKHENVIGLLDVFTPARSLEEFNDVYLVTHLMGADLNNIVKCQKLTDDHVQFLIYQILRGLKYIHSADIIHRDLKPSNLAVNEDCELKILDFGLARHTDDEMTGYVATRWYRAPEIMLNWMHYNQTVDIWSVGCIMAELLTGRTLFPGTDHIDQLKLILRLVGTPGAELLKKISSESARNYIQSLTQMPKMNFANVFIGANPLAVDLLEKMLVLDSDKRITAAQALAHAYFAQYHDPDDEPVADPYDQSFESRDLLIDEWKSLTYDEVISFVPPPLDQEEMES

SMILES: CNc1nccc(-c2c(-c3ccc(F)cc3)ncn2[C@H](CO)c2ccccc2)n1
- IC50: < 50 µM

SMILES: C[C@@H](CO)n1cnc(-c2ccc(F)cc2)c1-c1ccnc(Nc2ccccc2)n1
- IC50: < 50 µM

SMILES: COc1nccc(-c2c(-c3ccc(F)cc3)ncn2C(C)CN(C)C)n1 (stereo unspecified)
- IC50: < 50 µM

SMILES: COc1nccc(-c2c(-c3ccc(F)cc3)ncn2C(CO)CO)n1
- IC50: < 50 µM

SMILES: CC[C@@H](CO)n1cnc(-c2ccc(F)cc2)c1-c1ccnc(OC)n1
- IC50: < 50 µM

SMILES: CCCSc1nccc(-c2c(-c3ccc(F)cc3)ncn2[C@H](CC)CO)n1
- IC50: < 50 µM

SMILES: COc1nccc(-c2c(-c3ccc(F)cc3)ncn2C(C)COc2ccccc2)n1 (stereo unspecified)
- IC50: < 50 µM

SMILES: CNc1nccc(-c2c(-c3ccc(F)cc3)ncn2C(C)CO)n1 (stereo unspecified)
- IC50: < 50 µM

SMILES: CCCSc1nccc(-c2c(-c3ccc(F)cc3)ncn2C(CO)CO)n1
- IC50: < 50 µM

SMILES: COc1nccc(-c2c(-c3ccc(F)cc3)ncn2C(C)CO)n1 (stereo unspecified)
- IC50: < 50 µM

SMILES: CCCSc1nccc(-c2c(-c3ccc(F)cc3)ncn2[C@@H](CC)CO)n1
- IC50: < 50 µM

SMILES: CCCSc1nccc(-c2c(-c3ccc(F)cc3)ncn2C(C)CN(C)C)n1 (stereo unspecified)
- IC50: < 50 µM

SMILES: CNc1nccc(-c2c(-c3ccc(F)cc3)ncn2[C@@H](CO)c2ccccc2)n1
- IC50: < 50 µM

SMILES: C[C@@H](CO)n1cnc(-c2ccc(F)cc2)c1-c1ccncn1
- IC50: < 50 µM

SMILES: CCCSc1nccc(-c2c(-c3ccc(F)cc3)ncn2[C@H](CO)c2ccccc2)n1
- IC50: < 50 µM

SMILES: CCCSc1nccc(-c2c(-c3ccc(F)cc3)ncn2[C@@H](C)CO)n1
- IC50: < 50 µM

SMILES: CC[C@@H](CO)n1cnc(-c2ccc(F)cc2)c1-c1ccnc(NC)n1
- IC50: < 50 µM

SMILES: CCCSc1nccc(-c2c(-c3ccc(F)cc3)ncn2[C@@H](CO)c2ccccc2)n1
- IC50: < 50 µM

SMILES: COc1nccc(-c2c(-c3ccc(F)cc3)ncn2[C@H](CO)c2ccccc2)n1
- IC50: < 50 µM

SMILES: CCCSc1nccc(-c2c(-c3ccc(F)cc3)ncn2C(C)CC(=O)OC)n1 (stereo unspecified)
- IC50: < 50 µM

SMILES: COc1nccc(-c2c(-c3ccc(F)cc3)ncn2[C@@H](CO)c2ccccc2)n1
- IC50: < 50 µM

SMILES: COc1nccc(-c2c(-c3ccc(F)cc3)ncn2[C@H](CO)Cc2ccccc2)n1
- IC50: < 50 µM

SMILES: CC[C@H](CO)n1cnc(-c2ccc(F)cc2)c1-c1ccnc(OC)n1
- IC50: < 50 µM

SMILES: CC[C@H](CO)n1cnc(-c2ccc(F)cc2)c1-c1ccnc(NC)n1
- IC50: < 50 µM

SMILES: COc1nccc(-c2c(-c3ccc(F)cc3)ncn2[C@@H](CO)Cc2ccccc2)n1
- IC50: < 50 µM

SMILES: CCCSc1nccc(-c2c(-c3ccc(F)cc3)ncn2[C@H](C)CO)n1
- IC50: < 50 µM
